Assay results: patent publication US20230242585A1, “IMMUNOMODULATORS” (Bristol-Myers Squibb Company, priority 2020, published 2023)
pIC50: −log10 of the molar value. Starred links: 1 amine or outer side, 2 acyl side, 3 side chain; linkers in the order of their positions; H or OH if unused. Positions of bridges follow the written chain, without caps; N, C: chain ends. Non-standard residues stand in square brackets, D forms with d. Residues, ends and D or L forms follow the SMILES beside them. X28 = O=C([C@H](CCNC[C@H](O)[C@@H](O)[C@H](O[C@@H]1O[C@H](CO)[C@H](O)[C@H](O)[C@H]1O)[C@H](O)CO)N[*:1])[*:2]; X27 = O=C([C@H](CNC[C@H](O)[C@@H](O)[C@H](O[C@@H]1O[C@H](CO)[C@H](O)[C@H](O)[C@H]1O)[C@H](O)CO)N[*:1])[*:2]; X62 = O=C([C@H](CCNC[C@H](O)[C@H](O)[C@@H](O)[C@@H](O)CO)N[*:1])[*:2]; X35 = O=C([C@H](CNC[C@H](O)[C@H](O)[C@@H](O)[C@@H](O)CO)N[*:1])[*:2]; X59 = O=C([C@H](CCNC[C@H](O)[C@@H](O)[C@H](O)[C@H](O)CO)N[*:1])[*:2]; X8 = O=C([C@H](CNC[C@@H](O)[C@@H](O)[C@@H](O)[C@H](O)CO)N[*:1])[*:2]; X3 = O=C([C@H](CNC[C@@H](O)[C@@H](O)[C@H](O)[C@H](O)CO)N[*:1])[*:2]; X58 = O=C([C@H](CNC[C@H](O)[C@@H](O)[C@H](O)[C@H](O)CO)N[*:1])[*:2]; X33 = O=C([C@H](CNC[C@H](O)[C@@H](O)[C@@H](O)CO)N[*:1])[*:2]; Trp(1-CH2COOH) = N[C@@H](Cc1cn(CC(=O)O)c2ccccc12)C(=O)O; X65 = O=C([C@H](CCNCc1ccccc1-c1ccc(Cl)cc1)N[*:1])[*:2]; X55 = O=C([C@H](CCNCc1cccc2ccc3ccccc3c12)N[*:1])[*:2]; X64 = O=C([C@H](CNCc1ccccc1-c1ccc(Cl)cc1)N[*:1])[*:2]; X12 = O=C([C@H](CNCc1cccc2ccc3ccccc3c12)N[*:1])[*:2]; X19 = O=C([C@H](CCNCc1cccc2nccnc12)N[*:1])[*:2]; X18 = O=C([C@H](CNCc1cccc2nccnc12)N[*:1])[*:2]; X23 = O=C([C@H](CCNCc1cc2ccccc2o1)N[*:1])[*:2]; X22 = O=C([C@H](CNCc1cc2ccccc2o1)N[*:1])[*:2]; Hyp = O=C(O)[C@@H]1C[C@@H](O)CN1; NMeNle = CCCC[C@H](NC)C(=O)O; NMeA = CN[C@@H](C)C(=O)O; Dab = NCC[C@H](N)C(=O)O

Target: T1, PD-1/PD-L1 (Homo sapiens, UniProt Q9NZQ7)
T1 construct: TVMV protease site (linker) (C); made in house; host or cells: HEK293T cells
Test: PD-1/PD-L1 Homogenous Time-Resolved Fluorescence (HTRF) binding assay
Settings: PD-L1-His 10 nM, PD-1-Ig 20 nM
Excerpt: The ability of the compounds of formula (I) to bind to PD-L1 was investigated using a PD-1/PD-L1 Homogenous Time-Resolved Fluorescence (HTRF) binding assay.
The interaction of PD-1 and PD-L1 can be assessed using soluble, purified preparations of the extracellular domains of the two proteins. The PD-1 and PD-L1 protein extracellular domains were expressed as fusion proteins with detection tags, for PD-1, the tag was the Fc portion of Immunoglobulin (PD-1-Ig) and for PD-L1 it was the 6 histidine motif (PD-L1-His). All binding studies were performed in an HTRF assay buffer consisting of dPBS supplemented with 0.1% […] bovine serum albumin and 0.05% (v/v) Tween-20. For the h/PD-L1-His binding assay, inhibitors were pre-incubated with PD-L1-His (10 nM final) for 15 m in 4 µl of assay buffer, followed by addition of PD-1-Ig (20 nM final) in 1 µl of assay buffer and further incubation for 15 m. HTRF detection was achieved using europium crypate-labeled anti-Ig (1 nM final) and allophycocyanin (APC) labeled anti-His (20 nM final). Antibodies were diluted in HTRF detection buffer and 5 µl was dispensed on top of the binding reaction. The reaction mixture was allowed to equilibrate for 30 minutes and the resulting signal (665 nm/620 nm ratio) was obtained using an EnVision fluorometer. Additional binding assays were established between the human proteins PD-1-Ig/PD-L2-His (20 & 5 nM, respectively) and CD80-His/PD-L1-Ig (100 & 10 nM, respectively).
Recombinant Proteins: Human PD-1 (25-167) with a C-terminal human Fc domain of immunoglobulin G (Ig) epitope tag [hPD-1 (25-167)-3S-IG] and human PD-L1 (18-239) with a C-terminal His epitope tag [hPD-L1(18-239)-TVMV-His] were expressed in HEK293T cells and purified sequentially by ProteinA affinity chromatography and size exclusion chromatography. Human PD-L2-His and CD80-His was obtained through commercial sources.
Table 1 lists the IC50 values for representative examples of this disclosure measured in the PD-1/PD-L1 Homogenous Time-Resolved Fluorescence (HTRF) binding assay.

T1 sequence (Q9NZQ7 18-239): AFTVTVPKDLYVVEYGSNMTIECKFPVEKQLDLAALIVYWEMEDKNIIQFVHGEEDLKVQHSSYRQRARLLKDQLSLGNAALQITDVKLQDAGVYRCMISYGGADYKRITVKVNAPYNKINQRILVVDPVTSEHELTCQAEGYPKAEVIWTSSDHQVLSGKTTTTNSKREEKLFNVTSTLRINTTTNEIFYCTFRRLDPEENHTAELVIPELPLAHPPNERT

SMILES	pIC50
CCCC[C@H]1C(=O)N(C)[C@@H](CCCC)C(=O)N[C@@H](CC(C)C)C(=O)N[C@H](C(=O)NCC(N)=O)CSCC(=O)N[C@@H](Cc2ccc(O)cc2)C(=O)N(C)[C@@H](C)C(=O)N[C@@H](CC(N)=O)C(=O)N2CCC[C@H]2C(=O)N[C@@H](CNCc2cc3ccccc3o2)C(=O)N[C@@H](CC(C)C)C(=O)N2C[C@H](O)C[C@H]2C(=O)N[C@@H](Cc2c[nH]c3ccccc23)C(=O)N[C@@H](CCNCc2cc3ccccc3o2)C(=O)N[C@@H](Cc2cn(CC(=O)O)c3ccccc23)C(=O)N1C [Example 1010] ({CH2CO}-Y[NMeA]NP[X22]L[Hyp]W[X23][Trp(1-CH2COOH)][NMeNle][NMeNle]LCG-NH2; thioether N-14)	7.92
CCCC[C@H]1C(=O)N(C)[C@@H](CCCC)C(=O)N[C@@H](CC(C)C)C(=O)N[C@H](C(=O)NCC(N)=O)CSCC(=O)N[C@@H](Cc2ccc(O)cc2)C(=O)N(C)[C@@H](C)C(=O)N[C@@H](CC(N)=O)C(=O)N2CCC[C@H]2C(=O)N[C@@H](CNC[C@H](O)[C@@H](O)[C@H](O[C@@H]2O[C@H](CO)[C@H](O)[C@H](O)[C@H]2O)[C@H](O)CO)C(=O)N[C@@H](CC(C)C)C(=O)N2C[C@H](O)C[C@H]2C(=O)N[C@@H](Cc2c[nH]c3ccccc23)C(=O)N[C@@H](CCNC[C@H](O)[C@@H](O)[C@H](O[C@@H]2O[C@H](CO)[C@H](O)[C@H](O)[C@H]2O)[C@H](O)CO)C(=O)N[C@@H](Cc2cn(CC(=O)O)c3ccccc23)C(=O)N1C [Example 2028] ({CH2CO}-Y[NMeA]NP[X27]L[Hyp]W[X28][Trp(1-CH2COOH)][NMeNle][NMeNle]LCG-NH2; thioether N-14)	8.34
CCCC[C@H]1C(=O)N(C)[C@@H](CCCC)C(=O)N[C@@H](CC(C)C)C(=O)N[C@H](C(=O)NCC(N)=O)CSCC(=O)N[C@@H](Cc2ccc(O)cc2)C(=O)N(C)[C@@H](C)C(=O)N[C@@H](CC(N)=O)C(=O)N2CCC[C@H]2C(=O)N[C@@H](CNCc2ccccc2-c2ccc(Cl)cc2)C(=O)N[C@@H](CC(C)C)C(=O)N2C[C@H](O)C[C@H]2C(=O)N[C@@H](Cc2c[nH]c3ccccc23)C(=O)N[C@@H](CCNCc2ccccc2-c2ccc(Cl)cc2)C(=O)N[C@@H](Cc2cn(CC(=O)O)c3ccccc23)C(=O)N1C [Example 1001] ({CH2CO}-Y[NMeA]NP[X64]L[Hyp]W[X65][Trp(1-CH2COOH)][NMeNle][NMeNle]LCG-NH2; thioether N-14)	7.85
CCCC[C@H]1C(=O)N(C)[C@@H](CCCC)C(=O)N[C@@H](CC(C)C)C(=O)N[C@H](C(=O)NCC(N)=O)CSCC(=O)N[C@@H](Cc2ccc(O)cc2)C(=O)N(C)[C@@H](C)C(=O)N[C@@H](CC(N)=O)C(=O)N2CCC[C@H]2C(=O)N[C@@H](CNC[C@@H](O)[C@@H](O)[C@H](O)[C@H](O)CO)C(=O)N[C@@H](CC(C)C)C(=O)N2C[C@H](O)C[C@H]2C(=O)N[C@@H](Cc2c[nH]c3ccccc23)C(=O)N[C@@H](CCN)C(=O)N[C@@H](Cc2cn(CC(=O)O)c3ccccc23)C(=O)N1C [Example 2024] ({CH2CO}-Y[NMeA]NP[X3]L[Hyp]W[Dab][Trp(1-CH2COOH)][NMeNle][NMeNle]LCG-NH2; thioether N-14)	8.80
CCCC[C@H]1C(=O)N(C)[C@@H](CCCC)C(=O)N[C@@H](CC(C)C)C(=O)N[C@H](C(=O)NCC(N)=O)CSCC(=O)N[C@@H](Cc2ccc(O)cc2)C(=O)N(C)[C@@H](C)C(=O)N[C@@H](CC(N)=O)C(=O)N2CCC[C@H]2C(=O)N[C@@H](CNCc2cccc3nccnc23)C(=O)N[C@@H](CC(C)C)C(=O)N2C[C@H](O)C[C@H]2C(=O)N[C@@H](Cc2c[nH]c3ccccc23)C(=O)N[C@@H](CCNCc2cccc3nccnc23)C(=O)N[C@@H](Cc2cn(CC(=O)O)c3ccccc23)C(=O)N1C [Example 1002] ({CH2CO}-Y[NMeA]NP[X18]L[Hyp]W[X19][Trp(1-CH2COOH)][NMeNle][NMeNle]LCG-NH2; thioether N-14)	8.21
CCCC[C@H]1C(=O)N(C)[C@@H](CCCC)C(=O)N[C@@H](CC(C)C)C(=O)N[C@H](C(=O)NCC(N)=O)CSCC(=O)N[C@@H](Cc2ccc(O)cc2)C(=O)N(C)[C@@H](C)C(=O)N[C@@H](CC(N)=O)C(=O)N2CCC[C@H]2C(=O)N[C@@H](CNCc2cccc3ccc4ccccc4c23)C(=O)N[C@@H](CC(C)C)C(=O)N2C[C@H](O)C[C@H]2C(=O)N[C@@H](Cc2c[nH]c3ccccc23)C(=O)N[C@@H](CCNCc2cccc3ccc4ccccc4c23)C(=O)N[C@@H](Cc2cn(CC(=O)O)c3ccccc23)C(=O)N1C [Example 1022] ({CH2CO}-Y[NMeA]NP[X12]L[Hyp]W[X55][Trp(1-CH2COOH)][NMeNle][NMeNle]LCG-NH2; thioether N-14)	5.85
CCCC[C@H]1C(=O)N(C)[C@@H](CCCC)C(=O)N[C@@H](CC(C)C)C(=O)N[C@H](C(=O)NCC(N)=O)CSCC(=O)N[C@@H](Cc2ccc(O)cc2)C(=O)N(C)[C@@H](C)C(=O)N[C@@H](CC(N)=O)C(=O)N2CCC[C@H]2C(=O)N[C@@H](CNC[C@H](O)[C@@H](O)[C@H](O)[C@H](O)CO)C(=O)N[C@@H](CC(C)C)C(=O)N2C[C@H](O)C[C@H]2C(=O)N[C@@H](Cc2c[nH]c3ccccc23)C(=O)N[C@@H](CCNC[C@H](O)[C@@H](O)[C@H](O)[C@H](O)CO)C(=O)N[C@@H](Cc2cn(CC(=O)O)c3ccccc23)C(=O)N1C [Example 2032] ({CH2CO}-Y[NMeA]NP[X58]L[Hyp]W[X59][Trp(1-CH2COOH)][NMeNle][NMeNle]LCG-NH2; thioether N-14)	8.28
CCCC[C@H]1C(=O)N(C)[C@@H](CCCC)C(=O)N[C@@H](CC(C)C)C(=O)N[C@H](C(=O)NCC(N)=O)CSCC(=O)N[C@@H](Cc2ccc(O)cc2)C(=O)N(C)[C@@H](C)C(=O)N[C@@H](CC(N)=O)C(=O)N2CCC[C@H]2C(=O)N[C@@H](CNC[C@H](O)[C@@H](O)[C@@H](O)CO)C(=O)N[C@@H](CC(C)C)C(=O)N2C[C@H](O)C[C@H]2C(=O)N[C@@H](Cc2c[nH]c3ccccc23)C(=O)N[C@@H](CCN)C(=O)N[C@@H](Cc2cn(CC(=O)O)c3ccccc23)C(=O)N1C [Example 2002] ({CH2CO}-Y[NMeA]NP[X33]L[Hyp]W[Dab][Trp(1-CH2COOH)][NMeNle][NMeNle]LCG-NH2; thioether N-14)	8.30
CCCC[C@H]1C(=O)N(C)[C@@H](CCCC)C(=O)N[C@@H](CC(C)C)C(=O)N[C@H](C(=O)NCC(N)=O)CSCC(=O)N[C@@H](Cc2ccc(O)cc2)C(=O)N(C)[C@@H](C)C(=O)N[C@@H](CC(N)=O)C(=O)N2CCC[C@H]2C(=O)N[C@@H](CNC[C@@H](O)[C@@H](O)[C@@H](O)[C@H](O)CO)C(=O)N[C@@H](CC(C)C)C(=O)N2C[C@H](O)C[C@H]2C(=O)N[C@@H](Cc2c[nH]c3ccccc23)C(=O)N[C@@H](CCN)C(=O)N[C@@H](Cc2cn(CC(=O)O)c3ccccc23)C(=O)N1C [Example 2022] ({CH2CO}-Y[NMeA]NP[X8]L[Hyp]W[Dab][Trp(1-CH2COOH)][NMeNle][NMeNle]LCG-NH2; thioether N-14)	8.07
CCCC[C@H]1C(=O)N(C)[C@@H](CCCC)C(=O)N[C@@H](CC(C)C)C(=O)N[C@H](C(=O)NCC(N)=O)CSCC(=O)N[C@@H](Cc2ccc(O)cc2)C(=O)N(C)[C@@H](C)C(=O)N[C@@H](CC(N)=O)C(=O)N2CCC[C@H]2C(=O)N[C@@H](CNC[C@H](O)[C@H](O)[C@@H](O)[C@@H](O)CO)C(=O)N[C@@H](CC(C)C)C(=O)N2C[C@H](O)C[C@H]2C(=O)N[C@@H](Cc2c[nH]c3ccccc23)C(=O)N[C@@H](CCNC[C@H](O)[C@H](O)[C@@H](O)[C@@H](O)CO)C(=O)N[C@@H](Cc2cn(CC(=O)O)c3ccccc23)C(=O)N1C [Example 2023] ({CH2CO}-Y[NMeA]NP[X35]L[Hyp]W[X62][Trp(1-CH2COOH)][NMeNle][NMeNle]LCG-NH2; thioether N-14)	8.21
